pIC50: −log10 of the molar value.
Molecular target: T1, Ephrin type-B receptor 4 (Homo sapiens, UniProt P54760)
T1 sequence (P54760 whole entry): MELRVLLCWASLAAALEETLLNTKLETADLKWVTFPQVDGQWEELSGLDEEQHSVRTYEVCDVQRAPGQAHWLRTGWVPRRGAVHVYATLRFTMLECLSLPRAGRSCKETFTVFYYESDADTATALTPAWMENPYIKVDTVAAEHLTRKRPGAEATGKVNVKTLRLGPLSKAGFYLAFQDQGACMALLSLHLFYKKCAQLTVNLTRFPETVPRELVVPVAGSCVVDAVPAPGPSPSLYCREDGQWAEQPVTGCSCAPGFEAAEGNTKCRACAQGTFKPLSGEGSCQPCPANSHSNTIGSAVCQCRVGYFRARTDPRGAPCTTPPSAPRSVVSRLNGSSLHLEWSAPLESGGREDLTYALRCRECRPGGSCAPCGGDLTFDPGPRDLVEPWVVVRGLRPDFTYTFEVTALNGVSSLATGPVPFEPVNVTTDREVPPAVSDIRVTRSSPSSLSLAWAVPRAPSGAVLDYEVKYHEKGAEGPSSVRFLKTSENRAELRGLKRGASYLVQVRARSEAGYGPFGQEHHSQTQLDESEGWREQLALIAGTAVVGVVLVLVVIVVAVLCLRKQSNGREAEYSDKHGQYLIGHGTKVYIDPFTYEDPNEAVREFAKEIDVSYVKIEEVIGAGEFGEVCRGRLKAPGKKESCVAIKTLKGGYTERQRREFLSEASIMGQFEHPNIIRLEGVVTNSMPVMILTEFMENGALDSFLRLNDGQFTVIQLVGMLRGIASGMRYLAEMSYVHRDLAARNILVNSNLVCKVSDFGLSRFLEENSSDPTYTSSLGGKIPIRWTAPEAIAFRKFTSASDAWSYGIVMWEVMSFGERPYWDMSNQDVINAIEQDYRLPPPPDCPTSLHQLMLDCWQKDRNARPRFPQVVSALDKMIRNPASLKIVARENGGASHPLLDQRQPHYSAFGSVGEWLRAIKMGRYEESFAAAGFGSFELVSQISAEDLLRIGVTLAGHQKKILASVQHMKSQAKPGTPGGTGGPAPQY
Description: Inhibition of EphB4 (unknown origin) transfected in CHO cells using [gamma-33P]ATP by radiometric assay

- pIC50: 7.09
SMILES: CCCCn1c(-c2ccccc2C)cn2c3c(=O)[nH]c(=O)n(C)c3nc12

Reference: ChEMBL document CHEMBL2331203, “Optimization of inhibitors of the tyrosine kinase EphB4. 2. Cellular potency improvement and binding mode validation by X-ray crystallography” (J Med Chem, 2013)
